Reference: PMC8976073 (Nature Communications, 2022)
Positions count from the first letter of the chain named.

Legend:
Assay in all cases: Competition binding: inhibition of WK(FITC)YMVm binding to FPR2 (wild type and mutants), HEK293F cells
FPR2 [1] = target: T1, FPR2 (Homo sapiens, UniProt P25090, E89A); conditions: FPR2 E89A, mean ± SEM
T1 construct: expressed in transfected cells; host or cells: HEK293F cells, pTT5 vector
T1 sequence (P25090 1-351 E89A): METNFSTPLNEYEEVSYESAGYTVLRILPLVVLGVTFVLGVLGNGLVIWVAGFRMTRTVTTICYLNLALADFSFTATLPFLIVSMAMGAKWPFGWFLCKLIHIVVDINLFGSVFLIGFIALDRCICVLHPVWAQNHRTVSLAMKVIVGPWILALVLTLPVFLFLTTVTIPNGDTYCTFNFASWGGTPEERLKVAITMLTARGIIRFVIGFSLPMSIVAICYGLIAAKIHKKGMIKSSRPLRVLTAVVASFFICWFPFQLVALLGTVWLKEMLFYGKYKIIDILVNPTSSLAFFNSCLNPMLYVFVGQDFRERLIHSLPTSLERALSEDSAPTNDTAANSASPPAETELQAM
Description: (§1) The genes of wild-type FPR1 and FPR2 and mutants with a Flag tag at the N termini were cloned into pTT5 vector (Invitrogen) and expressed in HEK293F cells (Invitrogen). Cells were harvested 48 h post transfection with 1 μg ml^−1 plasmid. Cell-surface expression of the receptors was measured by mixing 10 μl cells with 15 μl of TBS buffer supplemented with 4% BSA, 20% (v/v) viability-staining solution 7-AAD (Invitrogen, Cat#00-6993-50), and 0.1% (v/v) anti-FLAG M2-FITC antibody (Sigma, Cat#F4049) at 4 °C for 20 min. After incubation, 175 μl of TBS buffer was added and the fluorescent signal was measured using a flow-cytometry reader (Guava easyCyte HT, Millipore). Then, the cells were washed and resuspended to a final concentration of 1 × 10^6 cells per ml in Hanks’ Balanced Salt Solution (HBSS) buffer supplemented with 0.5% bovine serum albumin (BSA) and 20 mM HEPES, pH 7.4.
(§2) The mean fluorescent intensity of each well was then read by the FCM reader. Total binding and nonspecific binding were measured in the absence and presence of the unlabeled ligand (200 μM WKYMVm), respectively. […] Mean fluorescent-intensity values were measured by flow cytometry. Data were analyzed using Prism 8.0 (GraphPad software).

FPR2 [2] = target: T2, FPR2 (Homo sapiens, UniProt P25090, E89G); conditions: FPR2 E89G, mean ± SEM
T2 construct: expressed in transfected cells; host or cells: HEK293F cells, pTT5 vector
T2 sequence (P25090 1-351 E89G): T1 sequence (P25090 1-351 E89A) with A89G
Description: as §1, §2

FPR2 [3] = target: T3, FPR2 (Homo sapiens, UniProt P25090, L198W); conditions: FPR2 L198W, mean ± SEM
T3 construct: expressed in transfected cells; host or cells: HEK293F cells, pTT5 vector
T3 sequence (P25090 1-351 L198W): T1 sequence (P25090 1-351 E89A) with A89E, L198W
Description: as §1, §2

FPR2 [4] = target: T4, FPR2 (Homo sapiens, UniProt P25090, M85K); conditions: FPR2 M85K, mean ± SEM
T4 construct: expressed in transfected cells; host or cells: HEK293F cells, pTT5 vector
T4 sequence (P25090 1-351 M85K): T1 sequence (P25090 1-351 E89A) with M85K, A89E
Description: as §1, §2

FPR2 [5] = target: T5, FPR2 (Homo sapiens, UniProt P25090, S211L); conditions: FPR2 Construct 2, mean ± SEM
T5 construct: expressed in transfected cells; host or cells: HEK293F cells, pTT5 vector
T5 sequence (P25090 with tags, fused parts or gaps S211L): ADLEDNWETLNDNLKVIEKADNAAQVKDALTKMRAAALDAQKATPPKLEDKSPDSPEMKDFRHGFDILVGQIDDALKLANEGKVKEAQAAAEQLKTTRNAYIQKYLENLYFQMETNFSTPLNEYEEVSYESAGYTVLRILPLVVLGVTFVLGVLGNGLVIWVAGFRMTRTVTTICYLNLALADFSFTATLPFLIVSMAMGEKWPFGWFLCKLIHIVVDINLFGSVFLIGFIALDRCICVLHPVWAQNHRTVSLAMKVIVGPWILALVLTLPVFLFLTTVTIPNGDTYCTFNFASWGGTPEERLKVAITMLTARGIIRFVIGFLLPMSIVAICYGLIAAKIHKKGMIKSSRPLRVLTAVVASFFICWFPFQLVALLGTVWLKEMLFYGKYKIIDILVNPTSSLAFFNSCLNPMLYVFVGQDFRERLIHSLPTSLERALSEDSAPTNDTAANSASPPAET
Description: as §1, §2

FPR2 [6] = target: T6, FPR2 (Homo sapiens, UniProt P25090, L272W); conditions: FPR2 L272W, mean ± SEM
T6 construct: expressed in transfected cells; host or cells: HEK293F cells, pTT5 vector
T6 sequence (P25090 1-351 L272W): T1 sequence (P25090 1-351 E89A) with A89E, L272W
Description: as §1, §2

With CC[C@H](C)[C@H](NC(=O)[C@H](CCC(=O)O)NC(=O)[C@H](CO)NC(=O)[C@@H](NC(=O)[C@H](CC(C)C)NC(=O)[C@H](CC(C)C)NC(=O)[C@H](CC(C)C)NC(=O)[C@H](CC(C)C)NC(=O)[C@H](CS)NC(=O)[C@H](CO)NC(=O)[C@H](Cc1ccccc1)NC(=O)CNC(=O)[C@H](CCCNC(=N)N)NC(=O)[C@@H]1CCCN1C(=O)[C@H](C)NC(=O)[C@H](CCSC)NC=O)[C@@H](C)O)C(=O)N[C@@H](CC(=O)O)C(=O)N[C@@H](CC(C)C)C(=O)N1CCC[C@H]1C(=O)N[C@H](C(=O)N[C@@H](CCCCN)C(=O)N[C@@H](CCCNC(=N)N)C(=O)N[C@@H](CCCNC(=N)N)C(=O)N[C@@H](C)C(=O)O)C(C)C [fHN, N-formyl humanin] as the compound, how does the Ki (FPR2 [1]) read?
Its Ki is 2240 nM.

And the Ki (FPR2 [2])?
Its Ki is 575 nM.

And the Ki (FPR2 [3])?
The Ki was 646 nM.

And the Ki (FPR2 [4])?
The Ki was 309 nM.

And the Ki (FPR2 [5])?
Its Ki is 525 nM.

And the Ki (FPR2 [6])?
Its Ki is 479 nM.
